Reference: patent US9556179B2 (BRISTOL-MYERS SQUIBB COMPANY, priority 2012, dated 2017)
Structures can show the parent of a compound that is named as a salt.

Experiments:
CK1ε = CK1ε (Homo sapiens (Human), UniProt P49674); assay: CK1ε kinase assay (Caliper LABCHIP electrophoretic separation of fluoresceinated peptide substrate and product); format: biochemical; settings: 200 pM enzyme, 50 μM ATP, 22 hours at room temperature
How it was run: (§1)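 Reactions ran 22 hours at room temperature and were stopped with EDTA. Phosphorylated product and unphosphorylated substrate were then separated electrophoretically. Compounds were tested at eleven concentrations, and IC50 values came from non-linear regression.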

CK1δ = CK1δ (Homo sapiens (Human), UniProt P48730); assay: CK1δ kinase assay (Caliper LABCHIP electrophoretic separation of fluoresceinated peptide substrate and product); format: biochemical; settings: 200 pM enzyme, 50 μM ATP, 22 hours at room temperature
How it was run: as §1

Chain of CK1ε (P49674 whole entry): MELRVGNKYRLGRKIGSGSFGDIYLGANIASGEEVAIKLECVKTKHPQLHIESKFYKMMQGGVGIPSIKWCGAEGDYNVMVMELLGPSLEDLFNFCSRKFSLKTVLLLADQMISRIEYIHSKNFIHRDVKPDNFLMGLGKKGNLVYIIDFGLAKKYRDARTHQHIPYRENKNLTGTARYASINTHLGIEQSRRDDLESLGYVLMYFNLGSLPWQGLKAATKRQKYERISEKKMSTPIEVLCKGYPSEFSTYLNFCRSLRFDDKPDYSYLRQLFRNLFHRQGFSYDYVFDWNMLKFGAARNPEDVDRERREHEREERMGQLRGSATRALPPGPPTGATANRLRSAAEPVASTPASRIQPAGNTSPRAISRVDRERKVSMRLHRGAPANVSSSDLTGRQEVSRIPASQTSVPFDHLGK
Chain of CK1δ (P48730 whole entry): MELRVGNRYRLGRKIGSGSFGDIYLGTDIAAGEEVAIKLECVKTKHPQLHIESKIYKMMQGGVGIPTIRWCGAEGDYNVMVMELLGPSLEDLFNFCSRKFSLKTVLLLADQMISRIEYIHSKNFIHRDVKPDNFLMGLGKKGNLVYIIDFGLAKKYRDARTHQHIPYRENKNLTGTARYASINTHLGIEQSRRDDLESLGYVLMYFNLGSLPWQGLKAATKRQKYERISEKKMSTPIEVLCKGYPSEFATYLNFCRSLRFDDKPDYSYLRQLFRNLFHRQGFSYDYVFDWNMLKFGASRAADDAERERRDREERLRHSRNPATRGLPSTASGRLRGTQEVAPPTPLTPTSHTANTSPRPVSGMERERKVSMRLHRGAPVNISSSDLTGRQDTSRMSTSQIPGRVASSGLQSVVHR

Row | Structure (SMILES) | IC50 (CK1ε) [nM] | IC50 (CK1δ) [nM]
1 | O=C(Nc1cn2nc(-c3c(-c4ccc(F)cc4)nc4ccccn34)ccc2n1)c1cc(F)nc(F)c1 [Compound 169, 2,6-difluoro-N-(6-(2-(4-fluorophenyl)imidazo[1,2-a]pyridin-3-yl)imidazo[1,2-b]pyridazin-2-yl)isonicotinamide] | 5.24 | 0.492
2 | O=C(Nc1cn2nc(-c3c(-c4ccc(F)cc4)nc4ccccn34)ccc2n1)c1ccc(-c2cc[nH]n2)cc1 [Compound 170, N-(6-(2-(4-fluorophenyl)imidazo[1,2-a]pyridin-3-yl)imidazo[1,2-b]pyridazin-2-yl)-4-(1H-pyrazol-3-yl) benzamide] | 8.43 | 0.743
3 | Cn1ccc(-c2cccc(C(=O)Nc3cn4nc(-c5c(-c6ccc(F)cc6)nc6ccccn56)ccc4n3)c2)n1 [Compound 171, N-(6-(2-(4-fluorophenyl)imidazo[1,2-a]pyridin-3-yl)imidazo[1,2-b]pyridazin-2-yl)-3-(1-methyl-1H-pyrazol-3-yl)benzamide] | 7.68 | 1.98
4 | O=C(Nc1cn2nc(-c3c(-c4ccc(F)cc4)nc4ccccn34)ccc2n1)c1cnc2ccccc2n1 [Compound 175, N-(6-(2-(4-fluorophenyl)imidazo[1,2-a]pyridin-3-yl)imidazo[1,2-b]pyridazin-2-yl)-2-quinoxalinecarboxamide] | 19.3 | 3.93
5 | O=C(Nc1cn2nc(-c3c(-c4ccc(F)cc4)nc4ccccn34)ccc2n1)c1csnn1 [Compound 176, N-(6-(2-(4-fluorophenyl)imidazo[1,2-a]pyridin-3-yl)imidazo[1,2-b]pyridazin-2-yl)-1,2,3-thiadiazole-4-carboxamide] | 47.4 | 5.68
6 | O=C(Nc1cn2nc(-c3c(-c4ccc(F)cc4)nc4ccccn34)ccc2n1)c1cc[nH]n1 [Compound 177, N-(6-(2-(4-fluorophenyl)imidazo[1,2-a]pyridin-3-yl)imidazo[1,2-b]pyridazin-2-yl)-1H-pyrazole-3-carboxamide] | 24.2 | 6.8
7 | Cc1nnsc1C(=O)Nc1cn2nc(-c3c(-c4ccc(F)cc4)nc4ccccn34)ccc2n1 [Compound 178, N-(6-(2-(4-fluorophenyl)imidazo[1,2-a]pyridin-3-yl)imidazo[1,2-b]pyridazin-2-yl)-4-methyl-1,2,3-thiadiazole-5-carboxamide] | 1520 | 200
8 | Cc1cc(C(=O)Nc2cn3nc(-c4c(-c5ccc(F)cc5)nc5ccccn45)ccc3n2)on1 [Compound 179, N-(6-(2-(4-fluorophenyl)imidazo[1,2-a]pyridin-3-yl)imidazo[1,2-b]pyridazin-2-yl)-3-methyl-5-isoxazolecarboxamide] | 2.93 | 0.206
9 | Cn1nccc1C(=O)Nc1cn2nc(-c3c(-c4ccc(F)cc4)nc4ccccn34)ccc2n1 [Compound 180, N-(6-(2-(4-fluorophenyl)imidazo[1,2-a]pyridin-3-yl)imidazo[1,2-b]pyridazin-2-yl)-1-methyl-1H-pyrazole-5-carboxamide] | 12.1 | 1.6
10 | Cn1ccc(C(=O)Nc2cn3nc(-c4c(-c5ccc(F)cc5)nc5ccccn45)ccc3n2)n1 [Compound 181, N-(6-(2-(4-fluorophenyl)imidazo[1,2-a]pyridin-3-yl)imidazo[1,2-b]pyridazin-2-yl)-1-methyl-1H-pyrazole-3-carboxamide] | 10.8 | 4.01
11 | O=C(Nc1cn2nc(-c3c(-c4ccc(F)cc4)nc4ccccn34)ccc2n1)c1cncnc1 [Compound 182, N-(6-(2-(4-fluorophenyl)imidazo[1,2-a]pyridin-3-yl)imidazo[1,2-b]pyridazin-2-yl)-5-pyrimidinecarboxamide] | 6.13 | 0.53
12 | N#Cc1ccc(C(=O)Nc2cn3nc(-c4c(-c5ccc(F)cc5)nc5ccccn45)ccc3n2)cn1 [Compound 183, 6-cyano-N-(6-(2-(4-fluorophenyl)imidazo[1,2-a]pyridin-3-yl)imidazo[1,2-b]pyridazin-2-yl)nicotinamide] | 3.82 | 0.207
13 | O=C(Nc1cn2nc(-c3c(-c4ccc(F)cc4)nc4ccccn34)ccc2n1)c1nc2ccccc2s1 [Compound 184, N-(6-(2-(4-fluorophenyl)imidazo[1,2-a]pyridin-3-yl)imidazo[1,2-b]pyridazin-2-yl)-1,3-benzothiazole-2-carboxamide] | 77.2 | 7.53
14 | O=C(Nc1cn2nc(-c3c(-c4ccc(F)cc4)nc4ccccn34)ccc2n1)c1ccncc1 [Compound 186, N-(6-(2-(4-fluorophenyl)imidazo[1,2-a]pyridin-3-yl)imidazo[1,2-b]pyridazin-2-yl)isonicotinamide] | 11.4 | 10.3
15 | O=C(Nc1cn2nc(-c3c(-c4ccc(F)cc4)nc4ccccn34)ccc2n1)c1csc(-c2ccncc2)n1 [Compound 187, N-(6-(2-(4-fluorophenyl)imidazo[1,2-a]pyridin-3-yl)imidazo[1,2-b]pyridazin-2-yl)-2-(pyridin-4-yl)thiazole-4-carboxamide] | 30.3 | 10.5
16 | O=C(Nc1cn2nc(-c3c(-c4ccc(F)cc4)nc4ccccn34)ccc2n1)c1csc(-c2cccnc2)n1 [Compound 188, N-(6-(2-(4-fluorophenyl)imidazo[1,2-a]pyridin-3-yl)imidazo[1,2-b]pyridazin-2-yl)-2-(pyridin-3-yl)thiazole-4-carboxamide] | 9.8 | 3.56
17 | COc1ccc(-c2nc(C(=O)Nc3cn4nc(-c5c(-c6ccc(F)cc6)nc6ccccn56)ccc4n3)cs2)cc1 [Compound 189, N-(6-(2-(4-fluorophenyl)imidazo[1,2-a]pyridin-3-yl)imidazo[1,2-b]pyridazin-2-yl)-2-(4-methoxyphenyl) thiazole-4-carboxamide, 3 HCl] | 32.1 | 17.1
18 | N#Cc1ccc(-c2nc(C(F)(F)F)c(C(=O)Nc3cn4nc(-c5c(-c6ccc(F)cc6)nc6ccccn56)ccc4n3)s2)cc1 [Compound 190, 2-(4-cyanophenyl)-N-(6-(2-(4-fluorophenyl)imidazo [1,2-a]pyridin-3-yl)imidazo [1,2-b]pyridazin-2-yl)-4-(trifluoromethyl)thiazole-5-carboxamide] | 6.05 | 4.77
19 | O=C(Nc1cn2nc(-c3c(-c4ccc(F)cc4)nc4ccccn34)ccc2n1)c1ccccc1 [Compound 191, N-(6-(2-(4-fluorophenyl)imidazo[1,2-a]pyridin-3-yl)imidazo[1,2-b]pyridazin-2-yl)benzamide] | 3.02 | 2.11
20 | CC(C)(C)C(=O)Nc1cc(C(=O)Nc2cn3nc(-c4c(-c5ccc(F)cc5)nc5ccccn45)ccc3n2)ccn1 [Compound 192, N-(6-(2-(4-fluorophenyl)imidazo[1,2-a]pyridin-3-yl)imidazo[1,2-b]pyridazin-2-yl)-2-pivalamidoisonicotinamide] | 1.06 | 0.096
21 | CN(C)c1cc(C(=O)Nc2cn3nc(-c4c(-c5ccc(F)cc5)nc5ccccn45)ccc3n2)ccn1 [Compound 193, 2-(dimethylamino)-N-(6-(2-(4-fluorophenyl)imidazo[1,2-a]pyridin-3-yl)imidazo[1,2-b]pyridazin-2-yl) isonicotinamide] | 1.28 | 0.111
22 | Nc1cc(C(=O)Nc2cn3nc(-c4c(-c5ccc(F)cc5)nc5ccccn45)ccc3n2)ccn1 [Compound 194, 2-amino-N-(6-(2-(4-fluorophenyl)imidazo[1,2-a]pyridin-3-yl)imidazo[1,2-b]pyridazin-2-yl) isonicotinamide] | 13.8 | 0.715
23 | O=C(Nc1cn2nc(-c3c(-c4ccc(F)cc4)nc4ccccn34)ccc2n1)c1ccnc(O)c1 [Compound 195, N-(6-(2-(4-fluorophenyl)imidazo[1,2-a]pyridin-3-yl)imidazo[1,2-b]pyridazin-2-yl)-2-hydroxyisonicotinamide] | 4.87 | 0.603
24 | O=C(Nc1cn2nc(-c3c(-c4ccc(F)cc4)nc4ccccn34)ccc2n1)c1ccnc(F)c1 [Compound 196, 2-fluoro-N-(6-(2-(4-fluorophenyl)imidazo[1,2-a]pyridin-3-yl)imidazo[1,2-b]pyridazin-2-yl)isonicotinamide] | 5.91 | 3.65
25 | CC(C)(C)c1cc(C(=O)Nc2cn3nc(-c4c(-c5ccc(F)cc5)nc5ccccn45)ccc3n2)ccn1 [Compound 197, 2-(tert-butyl)-N-(6-(2-(4-fluorophenyl)imidazo[1,2-a]pyridin-3-yl)imidazo[1,2-b]pyridazin-2-yl)isonicotinamide] | 8.98 | 2.99
26 | O=C(Nc1cn2nc(-c3c(-c4ccc(F)cc4)nc4ccccn34)ccc2n1)c1ccnc(C(F)(F)F)c1 [Compound 198, N-(6-(2-(4-fluorophenyl)imidazo[1,2-a]pyridin-3-yl)imidazo[1,2-b]pyridazin-2-yl)-2-(trifluoromethyl) isonicotinamide] | 34.6 | 3.88
27 | O=C(Nc1cn2nc(-c3c(-c4ccc(F)cc4)nc4ccccn34)ccc2n1)c1cc(Cl)ncc1C(F)(F)F [Compound 199, 2-chloro-N-(6-(2-(4-fluorophenyl)imidazo[1,2-a]pyridin-3-yl)imidazo[1,2-b]pyridazin-2-yl)-5-(trifluoromethyl) isonicotinamide] | 16.3 | 3.24
28 | O=C(Nc1cn2nc(-c3c(-c4ccc(F)cc4)nc4ccccn34)ccc2n1)c1ccncc1F [Compound 200, 3-fluoro-N-(6-(2-(4-fluorophenyl)imidazo[1,2-a]pyridin-3-yl)imidazo[1,2-b]pyridazin-2-yl) isonicotinamide] | 4.61 | 1.78
29 | O=C(Nc1cn2nc(-c3c(-c4ccc(F)cc4)nc4ccccn34)ccc2n1)c1cncc(Cl)c1 [Compound 201, 5-chloro-N-(6-(2-(4-fluorophenyl)imidazo[1,2-a]pyridin-3-yl)imidazo[1,2-b]pyridazin-2-yl) nicotinamide] | 3.04 | 1.21
